Test results: ChEMBL document CHEMBL4507258 (2021)

Columns and labels:
[1] = molecular target: Serine/threonine-protein kinase 32A (Homo sapiens) (UniProt Q8WU08); conditions: Compound concentration 1000.0 nM
[2] = molecular target: Ribosomal protein S6 kinase alpha-6 (Homo sapiens) (UniProt Q9UK32); conditions: Compound concentration 1000.0 nM
[3] = molecular target: Serine/threonine-protein kinase RIO2 (Homo sapiens) (UniProt Q9BVS4); conditions: Compound concentration 1000.0 nM
[4] = molecular target: Serine/threonine-protein kinase PAK 1 (Homo sapiens) (UniProt Q13153); conditions: Compound concentration 1000.0 nM
[5] = tested on: Receptor-type tyrosine-protein kinase FLT3 (Homo sapiens), P36888 [D835Y]; conditions: Compound concentration 1000.0 nM
[6] = molecular target: Serine/threonine-protein kinase/endoribonuclease IRE1 (Homo sapiens) (UniProt O75460); conditions: Compound concentration 1000.0 nM
[7] = molecular target: GABA-A receptor; anion channel (Rattus norvegicus) (UniProt O09028+P15431+P18506+P18508+P19969+P20236+P23574+P23576+P28471+P28473+P30191+P62813+P63079+P63138+Q91ZM7+Q9ES14); conditions: Compound concentration 10.0 uM
[8] = tested on: Tyrosine-protein kinase ABL1 (Homo sapiens), P00519 [F317I]; conditions: Compound concentration 1000.0 nM
[9] = molecular target: Serine/threonine-protein kinase 10 (Homo sapiens) (UniProt O94804); conditions: Compound concentration 1000.0 nM
Sequence of Serine/threonine-protein kinase 10 (Homo sapiens) (O94804 whole entry, looked up): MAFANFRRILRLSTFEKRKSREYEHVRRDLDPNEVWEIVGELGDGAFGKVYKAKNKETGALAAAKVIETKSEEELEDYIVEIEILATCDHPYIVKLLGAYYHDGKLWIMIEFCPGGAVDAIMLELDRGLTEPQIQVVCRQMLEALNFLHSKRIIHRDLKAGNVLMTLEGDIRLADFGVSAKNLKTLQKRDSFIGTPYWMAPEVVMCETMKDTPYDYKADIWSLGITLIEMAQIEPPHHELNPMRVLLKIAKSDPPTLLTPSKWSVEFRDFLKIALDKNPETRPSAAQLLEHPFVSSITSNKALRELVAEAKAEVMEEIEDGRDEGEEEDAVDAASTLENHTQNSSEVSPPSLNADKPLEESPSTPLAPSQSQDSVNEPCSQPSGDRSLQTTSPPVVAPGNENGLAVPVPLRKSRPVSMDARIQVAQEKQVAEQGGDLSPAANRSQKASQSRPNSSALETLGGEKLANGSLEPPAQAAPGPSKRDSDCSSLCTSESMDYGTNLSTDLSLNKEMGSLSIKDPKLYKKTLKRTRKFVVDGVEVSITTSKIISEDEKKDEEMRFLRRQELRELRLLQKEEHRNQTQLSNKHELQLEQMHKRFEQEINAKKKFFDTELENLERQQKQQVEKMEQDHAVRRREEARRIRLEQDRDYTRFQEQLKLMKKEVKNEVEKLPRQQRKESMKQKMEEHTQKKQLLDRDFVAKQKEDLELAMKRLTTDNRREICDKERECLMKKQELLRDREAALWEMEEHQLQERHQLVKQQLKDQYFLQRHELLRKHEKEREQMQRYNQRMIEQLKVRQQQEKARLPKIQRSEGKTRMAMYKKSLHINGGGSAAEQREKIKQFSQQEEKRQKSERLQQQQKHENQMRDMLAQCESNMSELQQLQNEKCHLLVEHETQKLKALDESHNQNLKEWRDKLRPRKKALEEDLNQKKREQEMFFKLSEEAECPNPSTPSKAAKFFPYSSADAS

[10] = tested on: Proto-oncogene tyrosine-protein kinase receptor Ret (Homo sapiens), P07949 [M918T]; conditions: Compound concentration 1000.0 nM
Sequence of Proto-oncogene tyrosine-protein kinase receptor Ret (Homo sapiens), P07949 [M918T] (P07949 whole entry M918T): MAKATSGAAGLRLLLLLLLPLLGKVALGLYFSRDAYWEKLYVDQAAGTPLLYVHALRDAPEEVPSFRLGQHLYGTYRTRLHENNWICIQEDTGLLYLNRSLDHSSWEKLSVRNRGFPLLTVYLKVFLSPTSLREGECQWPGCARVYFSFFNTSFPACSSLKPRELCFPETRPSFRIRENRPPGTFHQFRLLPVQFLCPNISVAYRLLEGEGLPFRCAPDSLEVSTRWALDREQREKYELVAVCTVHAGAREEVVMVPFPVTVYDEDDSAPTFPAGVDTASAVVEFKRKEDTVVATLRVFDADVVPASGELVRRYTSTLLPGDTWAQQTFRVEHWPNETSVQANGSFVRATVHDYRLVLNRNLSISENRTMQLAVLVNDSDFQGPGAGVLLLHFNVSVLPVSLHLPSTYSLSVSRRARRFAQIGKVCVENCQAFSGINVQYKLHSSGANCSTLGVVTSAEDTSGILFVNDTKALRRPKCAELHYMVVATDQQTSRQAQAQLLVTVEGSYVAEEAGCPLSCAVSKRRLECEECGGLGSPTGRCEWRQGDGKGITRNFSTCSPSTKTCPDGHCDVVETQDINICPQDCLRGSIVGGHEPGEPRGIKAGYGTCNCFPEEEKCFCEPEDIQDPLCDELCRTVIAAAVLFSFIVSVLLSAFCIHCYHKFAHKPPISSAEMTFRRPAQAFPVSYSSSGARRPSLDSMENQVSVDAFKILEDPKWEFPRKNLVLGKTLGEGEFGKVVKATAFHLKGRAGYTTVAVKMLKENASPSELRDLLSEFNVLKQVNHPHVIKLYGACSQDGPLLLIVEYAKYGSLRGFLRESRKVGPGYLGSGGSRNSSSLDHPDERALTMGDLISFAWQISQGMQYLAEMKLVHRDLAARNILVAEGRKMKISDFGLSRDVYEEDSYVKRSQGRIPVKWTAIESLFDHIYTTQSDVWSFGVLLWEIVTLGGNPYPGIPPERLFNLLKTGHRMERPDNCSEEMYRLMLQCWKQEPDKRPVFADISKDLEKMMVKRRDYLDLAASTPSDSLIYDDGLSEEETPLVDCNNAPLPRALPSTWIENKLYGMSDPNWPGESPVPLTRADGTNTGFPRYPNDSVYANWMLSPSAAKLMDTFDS

[11] = molecular target: Aurora kinase B (Homo sapiens) (UniProt Q96GD4); conditions: Compound concentration 1000.0 nM
Sequence of Aurora kinase B (Homo sapiens) (Q96GD4 whole entry): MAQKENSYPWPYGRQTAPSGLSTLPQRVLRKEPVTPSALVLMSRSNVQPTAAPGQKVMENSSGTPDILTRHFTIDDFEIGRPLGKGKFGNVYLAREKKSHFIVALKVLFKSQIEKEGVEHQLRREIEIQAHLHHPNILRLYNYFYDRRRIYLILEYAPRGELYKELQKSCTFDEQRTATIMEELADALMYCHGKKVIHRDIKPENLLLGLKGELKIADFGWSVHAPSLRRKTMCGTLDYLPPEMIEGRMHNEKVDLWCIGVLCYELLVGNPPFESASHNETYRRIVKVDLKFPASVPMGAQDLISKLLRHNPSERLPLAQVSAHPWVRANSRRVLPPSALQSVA

[12] = molecular target: Glycogen synthase kinase-3 alpha (Homo sapiens) (UniProt P49840); conditions: Compound concentration 1000.0 nM
Sequence of Glycogen synthase kinase-3 alpha (Homo sapiens) (P49840 2-483 limits assumed): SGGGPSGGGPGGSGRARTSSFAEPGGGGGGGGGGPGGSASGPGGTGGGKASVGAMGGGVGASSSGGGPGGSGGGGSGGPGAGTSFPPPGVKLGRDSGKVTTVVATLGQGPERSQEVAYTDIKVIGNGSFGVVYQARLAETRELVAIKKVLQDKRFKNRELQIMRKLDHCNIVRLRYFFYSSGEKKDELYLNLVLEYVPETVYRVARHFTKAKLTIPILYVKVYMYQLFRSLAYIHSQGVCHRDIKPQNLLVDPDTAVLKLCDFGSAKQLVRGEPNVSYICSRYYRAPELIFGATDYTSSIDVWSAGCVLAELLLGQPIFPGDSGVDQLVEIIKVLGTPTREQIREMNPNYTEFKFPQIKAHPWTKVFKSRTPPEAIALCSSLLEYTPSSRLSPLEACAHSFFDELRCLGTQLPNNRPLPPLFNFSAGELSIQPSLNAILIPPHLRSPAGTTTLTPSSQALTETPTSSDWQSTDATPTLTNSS

[13] = molecular target: Serine/threonine-protein kinase Sgk1 (Homo sapiens) (UniProt O00141); conditions: Compound concentration 1000.0 nM
[14] = molecular target: Hepatocyte growth factor receptor (Homo sapiens) (UniProt P08581); conditions: Compound concentration 1000.0 nM
[15] = molecular target: Ephrin type-A receptor 2 (Homo sapiens) (UniProt P29317); conditions: Compound concentration 1000.0 nM
[16] = molecular target: Serine/threonine-protein kinase TAO2 (Homo sapiens) (UniProt Q9UL54); conditions: Compound concentration 1000.0 nM
[17] = tested on: Hepatocyte growth factor receptor (Homo sapiens), P08581 [Y1235D]; conditions: Compound concentration 1000.0 nM
[18] = molecular target: Serine/threonine-protein kinase PAK 3 (Homo sapiens) (UniProt O75914); conditions: Compound concentration 1000.0 nM
[19] = molecular target: Serine/threonine-protein kinase ULK3 (Homo sapiens) (UniProt Q6PHR2); conditions: Compound concentration 1000.0 nM
[20] = tested on: Proto-oncogene tyrosine-protein kinase receptor Ret (Homo sapiens), P07949 [V804M]; conditions: Compound concentration 1000.0 nM
[21] = molecular target: Serine/threonine-protein kinase 25 (Homo sapiens) (UniProt O00506); conditions: Compound concentration 1000.0 nM
[22] = molecular target: Serine/threonine-protein kinase ULK2 (Homo sapiens) (UniProt Q8IYT8); conditions: Compound concentration 1000.0 nM
[23] = molecular target: Muscle, skeletal receptor tyrosine-protein kinase (Homo sapiens) (UniProt O15146); conditions: Compound concentration 1000.0 nM
Sequence of Muscle, skeletal receptor tyrosine-protein kinase (Homo sapiens) (O15146 whole entry): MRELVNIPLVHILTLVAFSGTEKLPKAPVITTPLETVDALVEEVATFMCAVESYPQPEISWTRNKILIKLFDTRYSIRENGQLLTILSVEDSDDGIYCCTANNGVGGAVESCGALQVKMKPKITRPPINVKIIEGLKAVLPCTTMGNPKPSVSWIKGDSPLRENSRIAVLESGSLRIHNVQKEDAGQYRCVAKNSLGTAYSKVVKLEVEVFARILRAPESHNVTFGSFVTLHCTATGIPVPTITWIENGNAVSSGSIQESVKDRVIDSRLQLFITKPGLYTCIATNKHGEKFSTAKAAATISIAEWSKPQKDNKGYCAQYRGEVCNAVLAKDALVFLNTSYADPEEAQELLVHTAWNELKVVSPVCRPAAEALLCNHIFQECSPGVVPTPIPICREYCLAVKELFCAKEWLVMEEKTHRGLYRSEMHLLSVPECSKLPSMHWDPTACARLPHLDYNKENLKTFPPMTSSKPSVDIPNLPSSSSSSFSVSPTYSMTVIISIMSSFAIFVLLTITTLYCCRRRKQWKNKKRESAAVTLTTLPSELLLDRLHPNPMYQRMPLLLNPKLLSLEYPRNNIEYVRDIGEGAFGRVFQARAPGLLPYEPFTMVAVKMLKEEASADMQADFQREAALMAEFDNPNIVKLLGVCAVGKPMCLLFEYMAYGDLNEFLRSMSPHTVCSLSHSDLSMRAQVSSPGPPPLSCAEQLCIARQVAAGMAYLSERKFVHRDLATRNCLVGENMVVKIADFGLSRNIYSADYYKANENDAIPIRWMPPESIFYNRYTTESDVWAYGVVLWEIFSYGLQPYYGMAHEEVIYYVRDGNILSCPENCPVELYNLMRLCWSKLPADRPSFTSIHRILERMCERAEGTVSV

[24] = molecular target: Mitogen-activated protein kinase 12 (Homo sapiens) (UniProt P53778); conditions: Compound concentration 1000.0 nM
[25] = molecular target: Serine/threonine-protein kinase Sgk3 (Homo sapiens) (UniProt Q96BR1); conditions: Compound concentration 1000.0 nM
[26] = molecular target: Beta-3 adrenergic receptor (Homo sapiens) (UniProt P13945); conditions: Compound concentration 10.0 uM
[27] = molecular target: D(2) dopamine receptor (Homo sapiens) (UniProt P14416); conditions: Compound concentration 10.0 uM
[28] = molecular target: Ribosomal protein S6 kinase alpha-1 (Homo sapiens) (UniProt Q15418); conditions: Compound concentration 1000.0 nM
[29] = tested on: Epidermal growth factor receptor (Homo sapiens), P00533 [L858R,T790M]; conditions: Compound concentration 1000.0 nM
[30] = molecular target: Calcium/calmodulin-dependent protein kinase type 1B (Homo sapiens, UniProt Q6P2M8); conditions: Compound concentration 1000.0 nM
[31] = molecular target: Alpha-1A adrenergic receptor (Homo sapiens) (UniProt P35348); conditions: Compound concentration 10.0 uM
[32] = molecular target: Mitogen-activated protein kinase 13 (Homo sapiens) (UniProt O15264); conditions: Compound concentration 1000.0 nM
[33] = molecular target: Atypical kinase COQ8A, mitochondrial (Homo sapiens) (UniProt Q8NI60); conditions: Compound concentration 1000.0 nM
[34] = molecular target: Myosin-IIIb (Homo sapiens) (UniProt Q8WXR4); conditions: Compound concentration 1000.0 nM
[35] = tested on: Epidermal growth factor receptor (Homo sapiens), P00533 [T790M]; conditions: Compound concentration 1000.0 nM
[36] = molecular target: D(1A) dopamine receptor (Homo sapiens) (UniProt P21728); conditions: Compound concentration 10.0 uM
[37] = molecular target: Calcium/calmodulin-dependent protein kinase type 1G (Homo sapiens) (UniProt Q96NX5); conditions: Compound concentration 1000.0 nM
[38] = molecular target: Serine/threonine-protein kinase BRSK1 (Homo sapiens) (UniProt Q8TDC3); conditions: Compound concentration 1000.0 nM
[39] = molecular target: MAP/microtubule affinity-regulating kinase 4 (Homo sapiens) (UniProt Q96L34); conditions: Compound concentration 1000.0 nM
Histamine H1 receptor = Histamine H1 receptor (Homo sapiens, UniProt P35367); conditions: Compound concentration 10.0 uM
[40] = molecular target: Cyclin-dependent kinase-like 1 (Homo sapiens) (UniProt Q00532); conditions: Compound concentration 1000.0 nM
[41] = molecular target: Mitogen-activated protein kinase 10 (Homo sapiens) (UniProt P53779); conditions: Compound concentration 1000.0 nM
[42] = molecular target: G protein-coupled receptor kinase 4 (Homo sapiens) (UniProt P32298); conditions: Compound concentration 1000.0 nM
[43] = molecular target: Tyrosine-protein kinase ABL1 (Homo sapiens) (UniProt P00519); conditions: Compound concentration 1000.0 nM

Sequence of Ribosomal protein S6 kinase alpha-6 (Homo sapiens) (Q9UK32 whole entry): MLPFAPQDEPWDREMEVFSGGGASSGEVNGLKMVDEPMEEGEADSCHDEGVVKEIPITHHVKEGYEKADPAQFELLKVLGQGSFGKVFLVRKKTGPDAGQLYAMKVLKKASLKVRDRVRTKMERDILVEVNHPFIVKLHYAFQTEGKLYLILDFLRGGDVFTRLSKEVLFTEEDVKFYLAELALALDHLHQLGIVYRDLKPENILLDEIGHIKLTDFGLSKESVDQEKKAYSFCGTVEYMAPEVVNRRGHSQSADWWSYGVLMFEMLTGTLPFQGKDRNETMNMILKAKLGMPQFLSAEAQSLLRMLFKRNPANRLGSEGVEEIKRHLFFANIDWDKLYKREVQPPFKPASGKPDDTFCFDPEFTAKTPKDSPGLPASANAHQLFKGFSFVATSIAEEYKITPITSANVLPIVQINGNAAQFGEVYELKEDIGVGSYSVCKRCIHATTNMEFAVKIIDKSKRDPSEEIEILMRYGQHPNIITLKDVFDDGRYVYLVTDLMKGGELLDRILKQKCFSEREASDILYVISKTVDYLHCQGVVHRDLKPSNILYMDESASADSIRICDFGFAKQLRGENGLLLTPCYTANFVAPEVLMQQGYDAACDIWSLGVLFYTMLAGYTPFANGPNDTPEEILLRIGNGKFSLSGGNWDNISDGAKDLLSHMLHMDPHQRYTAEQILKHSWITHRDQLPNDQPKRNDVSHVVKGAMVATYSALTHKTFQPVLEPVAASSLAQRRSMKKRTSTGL
Sequence of Serine/threonine-protein kinase RIO2 (Homo sapiens) (Q9BVS4 whole entry, looked up): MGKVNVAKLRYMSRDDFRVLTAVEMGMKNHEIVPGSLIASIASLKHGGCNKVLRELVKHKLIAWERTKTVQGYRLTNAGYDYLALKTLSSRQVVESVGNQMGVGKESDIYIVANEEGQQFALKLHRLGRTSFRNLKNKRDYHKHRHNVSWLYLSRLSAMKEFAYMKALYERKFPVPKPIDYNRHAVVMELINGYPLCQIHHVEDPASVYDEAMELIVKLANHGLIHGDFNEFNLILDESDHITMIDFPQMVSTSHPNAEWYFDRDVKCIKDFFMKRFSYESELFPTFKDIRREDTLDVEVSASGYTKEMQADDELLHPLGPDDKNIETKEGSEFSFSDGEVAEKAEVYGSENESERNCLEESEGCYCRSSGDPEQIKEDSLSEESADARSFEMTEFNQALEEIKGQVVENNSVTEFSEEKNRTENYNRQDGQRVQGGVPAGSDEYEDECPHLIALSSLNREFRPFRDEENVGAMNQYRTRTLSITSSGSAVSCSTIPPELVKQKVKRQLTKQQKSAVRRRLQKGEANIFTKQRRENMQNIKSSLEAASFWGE

Structure (SMILES): CCCCN(CCCC)C(=O)CN1C[C@@H](c2cc(OC)c3c(c2)OCO3)[C@H](C(=O)O)[C@H]1CC(C)(C)CCC [A-545]
- residual activity [1]: 100%
- residual activity [2]: 79.2%
- residual activity [3]: 83.2%
- residual activity [4]: 95.9%
- residual activity [5]: 75.2%
- residual activity [6]: 100%
- inhibition [7]: 8.52%
- residual activity [8]: 94.3%
- residual activity [9]: 82.4%
- residual activity [10]: 100%
- residual activity [11]: 100%
- residual activity [12]: 79.9%
- residual activity [13]: 77.6%
- residual activity [14]: 100%
- residual activity [15]: 97.8%
- residual activity [16]: 95.4%
- residual activity [17]: 100%
- residual activity [18]: 89.4%
- residual activity [19]: 90.7%
- residual activity [20]: 82.4%
- residual activity [21]: 88.1%
- residual activity [22]: 89.2%
- residual activity [23]: 78.7%
- residual activity [24]: 100%
- residual activity [25]: 100%
- inhibition [26]: 28.4%
- inhibition [27]: 21.3%
- residual activity [28]: 75.7%
- residual activity [29]: 100%
- residual activity [30]: 100%
- inhibition [31]: 23.3%
- residual activity [32]: 100%
- residual activity [33]: 99.4%
- residual activity [34]: 91%
- residual activity [35]: 86.7%
- inhibition [36]: 16.6%
- residual activity [37]: 100%
- residual activity [38]: 88.9%
- residual activity [39]: 93%
- inhibition (Histamine H1 receptor): 47.4%
- residual activity [40]: 74.9%
- residual activity [41]: 100%
- residual activity [42]: 95.8%
- residual activity [43]: 100%

Structure (SMILES): CCCCN(CCCC)C(=O)CN1C[C@H](c2cc(OC)c3c(c2)OCO3)[C@@H](C(=O)O)[C@@H]1CC(C)(C)CCC [ABT-546]
- residual activity [1]: 100%
- residual activity [2]: 100%
- residual activity [3]: 65.3%
- residual activity [4]: 100%
- residual activity [5]: 100%
- residual activity [6]: 70.6%
- inhibition [7]: 19.7%
- residual activity [8]: 72.5%
- residual activity [9]: 100%
- residual activity [10]: 100%
- residual activity [11]: 100%
- residual activity [12]: 92.3%
- residual activity [13]: 69.2%
- residual activity [14]: 100%
- residual activity [15]: 100%
- residual activity [16]: 71.1%
- residual activity [17]: 100%
- residual activity [18]: 100%
- residual activity [19]: 86.7%
- residual activity [20]: 100%
- residual activity [21]: 100%
- residual activity [22]: 88.8%
- residual activity [23]: 100%
- residual activity [24]: 100%
- residual activity [25]: 75.7%
- inhibition [26]: 2.71%
- inhibition [27]: 21.3%
- residual activity [28]: 100%
- residual activity [29]: 60.6%
- residual activity [30]: 86.5%
- inhibition [31]: -2.13%
- residual activity [32]: 100%
- residual activity [33]: 100%
- residual activity [34]: 88.6%
- residual activity [35]: 79%
- inhibition [36]: 4.66%
- residual activity [37]: 100%
- residual activity [38]: 100%
- residual activity [39]: 98.3%
- inhibition (Histamine H1 receptor): 53.6%
- residual activity [40]: 100%
- residual activity [41]: 91.1%
- residual activity [42]: 100%
- residual activity [43]: 79.8%
